Laboratory results: patent US10681909B2, “Herbicidal triazoles” (FMC Corporation, priority 2014, dated 2020)

Experiments:
barnyardgrass [1] = experiment: Test A preemergence; format: in vivo, Echinochloa crus-galli; conditions: 0 to 100 scale (0 no effect, 100 complete control)
Summary of the method: (§1)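 For preemergence, seeds were sown in a loam soil-sand blend and given a directed soil spray of test chemical in a non-phytotoxic solvent mixture with surfactant. For postemergence, plants in pots of the same blend were sprayed with the same formulation at the one- to two-leaf stage, 2 to 10 cm tall.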

crabgrass, large = experiment: Test C postemergence; format: in vivo, Digitaria sanguinalis
Summary of the method: (§2)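 Preemergence: seeds sown in loam soil–sand blend and treated with test chemicals formulated in a non-phytotoxic solvent mixture containing a surfactant. Postemergence: plants grown in peat moss/vermiculite-based medium and sprayed with the same formulation at 2 to 18 cm height (1- to 4-leaf stage).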

foxtail, giant [2] = experiment: Test A postemergence; format: in vivo, Setaria faberii; conditions: 0 to 100 scale (0 no effect, 100 complete control), approx. 10 d
Summary of the method: as §1

morningglory = experiment: Test C postemergence; format: in vivo, Ipomoea coccinea
Summary of the method: as §2

velvetleaf = experiment: Test C postemergence; format: in vivo, Abutilon theophrasti
Summary of the method: as §2

blackgrass = experiment: Test C postemergence; format: in vivo, Alopecurus myosuroides
Summary of the method: as §2

nutsedge, yellow = experiment: Test C postemergence; format: in vivo, Cyperus esculentus
Summary of the method: as §2

galium = experiment: Test C postemergence; format: in vivo, Galium aparine
Summary of the method: as §2

sedge, umbrella = experiment: Test B flooded paddy test; format: in vivo, Cyperus difformis; conditions: 250 g ai/ha, applied to paddy water at 2-leaf stage, visual rating after 13 to 15 d, scale 0 (no effect) to 100 (complete control)
Summary of the method: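 Pots were flooded to 3 cm above the soil at treatment, and compounds were applied directly into the paddy water. That depth was held throughout. After 13 to 15 d in a greenhouse, plants were rated visually against untreated controls.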

oilseed rape = experiment: Test C postemergence; format: in vivo, Brassica napus
Summary of the method: as §2

foxtail, giant [3] = experiment: Test A preemergence; format: in vivo, Setaria faberii; conditions: 0 to 100 scale (0 no effect, 100 complete control)
Summary of the method: as §1

kochia = experiment: Test C postemergence; format: in vivo, Kochia scoparia
Summary of the method: as §2

waterhemp = experiment: Test C postemergence; format: in vivo, Amaranthus rudis
Summary of the method: as §2

barnyardgrass [4] = experiment: Test A postemergence; format: in vivo, Echinochloa crus-galli; conditions: 0 to 100 scale (0 no effect, 100 complete control), approx. 10 d
Summary of the method: as §1

corn = experiment: Test C postemergence; format: in vivo, Zea mays
Summary of the method: as §2

barnyardgrass [5] = experiment: Test C postemergence; format: in vivo, Echinochloa crus-galli
Summary of the method: as §2

johnsongrass = experiment: Test C postemergence; format: in vivo, Sorghum halepense
Summary of the method: as §2

wheat = experiment: Test A postemergence; format: in vivo, Triticum aestivum; conditions: 0 to 100 scale (0 no effect, 100 complete control), approx. 10 d
Summary of the method: as §1

pigweed = experiment: Test A postemergence; format: in vivo, Amaranthus retroflexus; conditions: 0 to 100 scale (0 no effect, 100 complete control), approx. 10 d
Summary of the method: as §1

ryegrass, Italian = experiment: Test C postemergence; format: in vivo, Lolium multiflorum
Summary of the method: as §2

FC(F)(F)COc1nc(-c2ccccc2)nn1Cc1ccnc(C(F)(F)F)c1 [Compound 24]
95: Plant response rating (scale of 0 to 100 where 0 is no effect and 100 is complete control) (morningglory; 250 g ai/ha) | Plant response rating (scale of 0 to 100 where 0 is no effect and 100 is complete control) (galium; 250 g ai/ha)
60: Plant response rating (scale of 0 to 100 where 0 is no effect and 100 is complete control) (velvetleaf; 31 g ai/ha) | Plant response rating (scale of 0 to 100 where 0 is no effect and 100 is complete control) (velvetleaf; 125 g ai/ha) | Plant response rating (scale of 0 to 100 where 0 is no effect and 100 is complete control) (velvetleaf; 250 g ai/ha)
85: Plant response rating, Sedge, Umbrella, Flood (sedge, umbrella) | Plant response rating (scale of 0 to 100 where 0 is no effect and 100 is complete control) (oilseed rape; Oilsee Rape, 250 g ai/ha) | Plant response rating (scale of 0 to 100 where 0 is no effect and 100 is complete control) (oilseed rape; Oilseed Rape, 125 g ai/ha)
50: Plant response rating, Barnyardgrass (barnyardgrass [1]; 125 g ai/ha) | Plant response rating (scale of 0 to 100 where 0 is no effect and 100 is complete control) (oilseed rape; Oilseed Rape, 31 g ai/ha)
80: Plant response rating (scale of 0 to 100 where 0 is no effect and 100 is complete control) (galium; 62 g ai/ha) | Plant response rating (scale of 0 to 100 where 0 is no effect and 100 is complete control) (galium; 125 g ai/ha) | Plant response rating (scale of 0 to 100 where 0 is no effect and 100 is complete control) (oilseed rape; Oilseed Rape, 62 g ai/ha)
35: Plant response rating (scale of 0 to 100 where 0 is no effect and 100 is complete control) (crabgrass, large; 250 g ai/ha) | Plant response rating (scale of 0 to 100 where 0 is no effect and 100 is complete control) (blackgrass; 125 g ai/ha) | Plant response rating (scale of 0 to 100 where 0 is no effect and 100 is complete control) (blackgrass; 250 g ai/ha) | Plant response rating (scale of 0 to 100 where 0 is no effect and 100 is complete control) (barnyardgrass [5]; 125 g ai/ha) | Plant response rating (scale of 0 to 100 where 0 is no effect and 100 is complete control) (barnyardgrass [5]; 250 g ai/ha)
15: Plant response rating (scale of 0 to 100 where 0 is no effect and 100 is complete control) (crabgrass, large; 31 g ai/ha) | Plant response rating (scale of 0 to 100 where 0 is no effect and 100 is complete control) (nutsedge, yellow; 31 g ai/ha)
10: Plant response rating (scale of 0 to 100 where 0 is no effect and 100 is complete control) (crabgrass, large; 62 g ai/ha) | Plant response rating (scale of 0 to 100 where 0 is no effect and 100 is complete control) (johnsongrass; 31 g ai/ha) | Plant response rating (scale of 0 to 100 where 0 is no effect and 100 is complete control) (johnsongrass; 125 g ai/ha)
90: Plant response rating, Barnyardgrass (barnyardgrass [1]; 500 g ai/ha, approx. 10 d) | Plant response rating, Foxtail, Giant (foxtail, giant [2]; 500 g ai/ha) | Plant response rating (scale of 0 to 100 where 0 is no effect and 100 is complete control) (morningglory; 125 g ai/ha) | Plant response rating (scale of 0 to 100 where 0 is no effect and 100 is complete control) (kochia; 31 g ai/ha) | Plant response rating (scale of 0 to 100 where 0 is no effect and 100 is complete control) (kochia; 62 g ai/ha) | Plant response rating (scale of 0 to 100 where 0 is no effect and 100 is complete control) (kochia; 125 g ai/ha) | Plant response rating (scale of 0 to 100 where 0 is no effect and 100 is complete control) (kochia; 250 g ai/ha) | Plant response rating, Pigweed (pigweed; 125 g ai/ha)
30: Plant response rating, Barnyardgrass (barnyardgrass [4]; 125 g ai/ha) | Plant response rating (scale of 0 to 100 where 0 is no effect and 100 is complete control) (corn; 250 g ai/ha) | Plant response rating (scale of 0 to 100 where 0 is no effect and 100 is complete control) (barnyardgrass [5]; 62 g ai/ha) | Plant response rating, Wheat (wheat; 500 g ai/ha)
25: Plant response rating (scale of 0 to 100 where 0 is no effect and 100 is complete control) (crabgrass, large; 125 g ai/ha) | Plant response rating (scale of 0 to 100 where 0 is no effect and 100 is complete control) (nutsedge, yellow; 62 g ai/ha) | Plant response rating (scale of 0 to 100 where 0 is no effect and 100 is complete control) (nutsedge, yellow; 250 g ai/ha) | Plant response rating (scale of 0 to 100 where 0 is no effect and 100 is complete control) (corn; 125 g ai/ha) | Plant response rating (scale of 0 to 100 where 0 is no effect and 100 is complete control) (barnyardgrass [5]; 31 g ai/ha) | Plant response rating (scale of 0 to 100 where 0 is no effect and 100 is complete control) (ryegrass, Italian; 250 g ai/ha)
55: Plant response rating (scale of 0 to 100 where 0 is no effect and 100 is complete control) (velvetleaf; 62 g ai/ha)
98: Plant response rating (scale of 0 to 100 where 0 is no effect and 100 is complete control) (morningglory; 31 g ai/ha) | Plant response rating (scale of 0 to 100 where 0 is no effect and 100 is complete control) (morningglory; 62 g ai/ha) | Plant response rating (scale of 0 to 100 where 0 is no effect and 100 is complete control) (waterhemp; 62 g ai/ha) | Plant response rating (scale of 0 to 100 where 0 is no effect and 100 is complete control) (waterhemp; 125 g ai/ha) | Plant response rating (scale of 0 to 100 where 0 is no effect and 100 is complete control) (waterhemp; 250 g ai/ha)
20: Plant response rating (scale of 0 to 100 where 0 is no effect and 100 is complete control) (nutsedge, yellow; 125 g ai/ha) | Plant response rating (scale of 0 to 100 where 0 is no effect and 100 is complete control) (corn; 31 g ai/ha) | Plant response rating (scale of 0 to 100 where 0 is no effect and 100 is complete control) (corn; 62 g ai/ha) | Plant response rating (scale of 0 to 100 where 0 is no effect and 100 is complete control) (johnsongrass; 62 g ai/ha) | Plant response rating (scale of 0 to 100 where 0 is no effect and 100 is complete control) (johnsongrass; 250 g ai/ha) | Plant response rating, Wheat (wheat; 125 g ai/ha) | Plant response rating (scale of 0 to 100 where 0 is no effect and 100 is complete control) (ryegrass, Italian; 125 g ai/ha)
70: Plant response rating, Foxtail, Giant (foxtail, giant [2]; 125 g ai/ha) | Plant response rating (scale of 0 to 100 where 0 is no effect and 100 is complete control) (galium; 31 g ai/ha) | Plant response rating, Barnyardgrass (barnyardgrass [4]; 500 g ai/ha)
100: Plant response rating, Foxtail, Giant (foxtail, giant [3]; 125 g ai/ha) | Plant response rating, Foxtail, Giant (foxtail, giant [3]; 500 g ai/ha, approx. 10 d) | Plant response rating (scale of 0 to 100 where 0 is no effect and 100 is complete control) (waterhemp; 31 g ai/ha) | Plant response rating, Pigweed (pigweed; 500 g ai/ha)
5: Plant response rating (scale of 0 to 100 where 0 is no effect and 100 is complete control) (blackgrass; 31 g ai/ha) | Plant response rating (scale of 0 to 100 where 0 is no effect and 100 is complete control) (blackgrass; 62 g ai/ha) | Plant response rating (scale of 0 to 100 where 0 is no effect and 100 is complete control) (ryegrass, Italian; 31 g ai/ha) | Plant response rating (scale of 0 to 100 where 0 is no effect and 100 is complete control) (ryegrass, Italian; 62 g ai/ha)
